Here are results for one compound from patent US11882816B2, “Genetically engineered non-human mammal, construction method therefor and use thereof” (priority 2017, dated 2024).

In experiment [1] the test system is homozygous mice. Put plainly: Quantification of ascending aortic atherosclerotic plaques in homozygous mice on HF diet with/without Dox, weekly MTX. The experiment is classed as in vivo. Particulars: hypertensive (Dox) homozygous mice fed HF diet for 8 weeks, control 46%, P<0.05, FIGS. 12C-D. From the text: Homozygous mice (Hom) and ApoE knockout mice (KO) are used as controls, the experiment is employed by dividing the mice into four groups, each group has 15 mice, four groups being normal diet group (Chow), high fat diet group (HF), higher fat diet group (H-HF) and ultra-high fat diet group (CH-HF). The mice are fed with normal diet group (Chow) until 8 weeks old and then are fed with different high fat diet, respectively being HF feed (HF formula: 21.2% fat, 48.7% carbohydrate, 17.3% protein, and 0.25% cholesterol), H-HF feed (H-HF formula: 21.2% fat, 48.7% carbohydrate, 17.3% protein, and 1.25% cholesterol), and CH-HF feed (CH-HF formula: 21.2% fat, 48.7% carbohydrate, 17.3% protein, 1.25% cholesterol, and 0.5% cholic acid). After 8 weeks of treatment, collecting the blood of the mice, detecting the body weight, heart weight, spleen weight and blood lipids of the mice, and isolating the mice aorta for oil red O staining so as to quantify the atherosclerotic plaque content.
(§1) Homozygous mice, divided into 5 groups, are to fed with normal diet (Chow), high-fat diet (HF), high-fat diet plus boostin (HF+D), high-fat diet plus methotrexate (MTX) (HF+M), and high-fat diet plus boostin and methotrexate (HF+D+M). […] The blood pressure changes of the mice are periodically detected, and the data such as blood, blood lipids, blood pressure and death data etc. of the mice are collected. […]

Experiment [2] has as its system homozygous mice. The experiment can be described thus: Blood pressure of homozygous mice on HF diet with/without doxycycline, weekly MTX injection (non-invasive tail pressure measurement). Particulars: male homozygous mice, HF diet with/without Dox, MTX 1 mg/kg i.p. once a week; FIG. 12A. The experiment is classed as in vivo. On the procedure: The mice are divided into 3 groups for experiments, wild-type mice (Wt), homozygous mice (Hom) and heterozygous mice (Het), with each group having 15 mice. The mice are fed with normal diet (Chow) until 8 weeks old, and are administrated tetracycline analog doxycycline (1 to 2 mg/ml) with water. The blood pressure changes of mice are measured periodically. The method for measuring the blood pressure of mice is the method of non-invasive tail pressure measurement (iiTC Life Science, Woodland Hills, CA), wherein the mice are fixed in the sleeve and stay quiet in the sleeve for 10 minutes. Then the instrument is operated to measure the blood pressure at the tail of mice using […], three measurements are made for each operation, and the average is taken. Mice blood is collected, and body weight, heart weight, spleen weight, blood lipids and blood pressure of mice are measured.
as §1

For experiment [3], the system named is IL-6, ICAM-1, E-selectin, VCAM-1 expressions. Particulars: general statement on the anti-inflammatory drug; cited from earlier work.
The subject of experiment [4] is homozygous mice. The experiment can be described thus: Detection of cytokines and adhesion molecules in plasma of homozygous mice on HF diet with/without Dox, weekly MTX. The experiment is classed as in vivo. From the text:
(§2) Homozygous mice, divided into 5 groups, are to fed with normal diet (Chow), high-fat diet (HF), high-fat diet plus boostin (HF+D), high-fat diet plus methotrexate (MTX) (HF+M), and high-fat diet plus boostin and methotrexate (HF+D+M). […] Homozygous mice are fed with normal diet (Chow) until 8 weeks old, and are fed with high fat diet HF (HF formula: 21.2% fat, 48.7% carbohydrate, 17.3% protein, and 0.25% cholesterol) for 8 weeks. The mice are divided in to groups, with each group having 15 mice. The HF group is fed with high-fat diet, and is injected with 100 μl of physiological saline weekly. The HF+M group is fed with high-fat diet, and is injected with methotrexate at a dose of 1 mg/kg once a week. The HF+D group is fed with high-fat diet and 1-2 mg/ml of doxycycline together with drinking water, and is injected with 100 μl of physiological saline weekly. The HF+D+M group is fed with high-fat diet, injected with methotrexate at a dose of 1 mg/kg once a week, and fed with doxycycline at 1-2 mg/ml together with drinking water. The blood pressure changes of the mice are periodically detected, and the data such as blood, blood lipids, blood pressure and death data etc. of the mice are collected.
As shown in FIGS. 11A to 11D, hypertension combined with a high-fat diet induce higher accumulation of triglycerides in the blood of mice. The inventors, using homozygous mice, have studied the effects of methotrexate (MTX) (an anti-inflammatory drug) on cardiovascular. Male homozygous mice are fed with HF diet with/without the addition of doxycycline (Dox), and are further randomized by intraperitoneal injection of MTX or control (vector) weekly. […] Hypertension combined with a high-fat diet induced higher mortality of mice, but if injected with methotrexate weekly, the survival rate of mice is increased at 8 weeks of co-administration (74% versus 43%, FIG. 12B).

In experiment [5] the test system is homozygous mice. Put plainly: Survival of hypertensive (Dox) homozygous mice on high-fat diet, weekly methotrexate injection. The experiment is classed as in vivo. Particulars: hypertension (Dox) combined with high-fat diet, methotrexate 1 mg/kg weekly, at 8 weeks of co-administration, control 43%, FIG. 12B.
Text: as §2
As shown in FIGS. 11A to 11D, hypertension combined with a high-fat diet induce higher accumulation of triglycerides in the blood of mice. […]

The test system of experiment [6] is patients suffering from long-term inflammatory diseases such as rheumatoid arthritis. Particulars: clinically, low doses; patients with long-term inflammatory diseases such as rheumatoid arthritis; ref. [10]; cited from earlier work.
Setting [7] is: hypertensive (Dox) homozygous mice, HF diet, MTX weekly, FIG. 12H-J.
[8] abbreviates: induced hypertensive MTX group compared with control group, FIGS. 12K-S.

On to `CN(Cc1cnc2nc(N)nc(N)c2n1)c1ccc(C(=O)N[C@@H](CCC(=O)O)C(=O)O)cc1` [MTX, methotrexate], for which the atherosclerotic lesions in the experiment on homozygous mice [1] worked out at 34%. In addition, the “blood pressure of the mice” value in the experiment on homozygous mice [2] is on record as “would not alter”. Also, in experiment [3], the “IL-6, ICAM-1, E-selectin, VCAM-1 expressions” value is given as “can down-regulate”. The “plasma concentration of MCP-5, intercellular adhesion molecule-1 and vascular cell adhesion molecules” value in the experiment on homozygous mice [4] (homozygous mice having normal blood pressure, HF diet, MTX weekly, FIG. 12H-J) is given as “would not produce any effect”. Moreover, in the experiment with homozygous mice [4] (setting [7]), the “plasma concentration of intercellular adhesion molecule-1” value is “would significantly reduce” and the “plasma concentration of monocyte chemoattractant protein (MCP)-5” value is reported as “would significantly reduce”. In the experiment on homozygous mice [4] (setting [8]), the “E-selectin level in plasma” value is “decreased level”, the “IL-1β level in plasma” value was “decreased level”, the “IL-6 level in plasma” value is given as “decreased level” and the “IL-17 level in plasma” value is reported as “decreased level”. In the experiment on homozygous mice [4] (setting [8]), the “MCP-1 level in plasma” value is listed as “decreased level”, the “P-selectin level in plasma” value was “decreased level”, the “granulocyte colony-stimulating factor level in plasma” value is “decreased level” and the “interferon-γ level in plasma” value was “decreased level”. In the experiment on homozygous mice [4] (setting [8]), the “tumor necrosis factor-α level in plasma” value is listed as “decreased level”. Also, in the experiment on homozygous mice [5], the “survival rate of mice” value turned out to be 74%. For the same compound, in experiment [6], the “cardiovascular risk in patients” value is listed as “could reduce cardiovascular risk”.
